{
  "source": "patent US20180265463A1",
  "about": "“Vitamin D3 Derivatives and Pharmaceutical Use Thereof” (Kyoto University, priority 2014, published 2018)",
  "type_in_all_cases": "cell-based, Chinese hamster",
  "key": {"SREBP-2": {"system": "SREBP-2", "assay": "Western-blot analysis of SREBP-2 in CHO-K1 cells", "settings": "5 μM; for levels of the mature form of SREBP versus DMSO: 16 h, CHO-K1 cells (FIG. 7, FIG. 8)", "protocol": "CHO-K1 cells were treated with DMSO alone or each molecule (5 μM) for 18 h. The levels of precursor and mature forms of SREBP-2 were analyzed by Western-blot. Western-blots of actin are shown in lower panel as a loading control.\nCHO-K1 cells were treated with DMSO alone or each molecule (5 μM) for 16 h. The levels of precursor and mature forms of SREBP-2 were analyzed by Western-blot. Western-blots of actin are shown in lower panel as a loading control.\nOn day 0, CHO-K1 cells were added to 6-well plates at 3.0×10^5 cells per well in medium A. On day 1, the cells were washed with PBS, and then incubated in medium B in the absence or presence of specific test compounds (5 μM). After 16 h of incubation, the cells were washed three times with cold PBS, and lysed with a buffer A (50 mM Tris-HCl (pH 7.5), 150 mM NaCl, 1% (v/v) Nonidet P40, 0.5% (w/v) sodium deoxycholate, 8 M urea, and protease inhibitor cocktail (Nacalai)). The cell lysate were passed 16 times through a 25 G needle and centrifuged at 7,000 g at 4° C. for 10 min. The supernatants were transferred to new tubes, and the pellets were extracted with a buffer A. The resulting buffer was centrifuged at 7,000 g at 4° C. for 10 min, and the supernatants were combined to the previous ones. The resulting lysate was mixed with 0.20 volume of 6×SDS sample buffer (Nacalai) and incubated at room temperature for 30 min. The samples were separated on a 10% SDS-PAGE gel and blotted, using mouse monoclonal antibodies against SREBP-2 (IgG-7D4), SCAP (IgG-9D5), c-Myc (IgG1-MC045), and actin (AC-40). The specific bands were visualized using enhanced chemiluminescence (ECL Prime Western Blotting Detection Reagent, GE Healthcare) on an ImageQuant LAS 500 (GE Healthcare)."}, "SREBP": {"target": "SREBP", "assay": "SRE-driven luciferase reporter assay of SREBP activation", "settings": "luciferase reporter in CHO-K1 cells, lipid-depleted medium, 20-24 h, normalized to β-galactosidase, averages of three independent experiments, read-out: IC50 (μM), inhibitory effect on the activation of SREBP", "protocol": "The transfected cells were treated with DMSO alone, sterols (10 μg/mL cholesterol and 1.0 μg/mL 25-HC), or varied concentrations of 25(OH)D in a medium containing lipid-free serum. Luciferase activity was measured after 20 h incubation, and the data were normalized to β-galactosidase activity. Values are the mean±SD of three independent experiments.\nThe molecules in a chemical library which consists of 280 endogenous lipid related molecules were screened for their ability to inhibit the expression of a luciferase reporter gene. In this gene, three repeats of sterol regulatory elements (SREs) control expression of luciferase. Lipid depletion activates SREBPs, which bind to the SRE domain and work as transcription factors to express luciferase. The SREBP-responsive reporter construct was co-transfected into Chinese hamster ovary K1 (CHO-K1) cells, along with a control β-galactosidase (β-gal) reporter gene. A constitutively active actin promoter in the reporter gene drives the expression of β-gal. The levels of luciferase expression from the SREBP-responsive reporter gene were normalized to the levels of β-gal expression.\nCHO-K1 cells were maintained in a medium A (1:1 mixture of Ham's F-12 medium and Dulbecco's modified Eagle medium, supplemented with 100 units/mL penicillin, 100 μg/mL streptomycin sulfate, and 5% (v/v) fetal bovine serum) at 37° C. under humidified 5% CO2.\nOn day 0, CHO-K1 cells were added to 96-well plates at 1.0×10^4 cells per well in medium A. On day 1, the cells were co-transfected with an SRE-1-driven luciferase reporter construct (pSRE-Luc) and pAc-β-gal at a 20/1 ratio, using FuGENE(Registered trademark) HD transfection reagent (Promega), according to the manufacturer's protocol. After 8-12 h of incubation, the cells were washed with PBS buffer, then incubated in medium B containing the specific test compounds. […] After 20-24 h of incubation, the cells in each well were lysed by freeze-thaw with Reporter Lysis Buffer (Promega), and aliquots were used to measure luciferase and β-galactosidase activities. Luciferase activity was measured using the Steady-Glo(Registered trademark) Luciferase Assay System (Promega), and β-galactosidase activity was measured using the β-galactosidase Enzyme Assay System (Promega). Luciferase activity was normalized to β-galactosidase activity."}, "[1]": {"system": "SREBP-2 fragment fused to PLAP (PLAP-BP2513-1141)", "assay": "PLAP-BP assay (secreted alkaline phosphatase reporter of SREBP translocation and processing)", "settings": "VD derivatives 10 μM, 20 h, CHO-K1 co-transfected with PLAP-BP2 and SCAP; average of two experiments"}},
  "note": "Entries after “also recorded” stand apart in the source; their conditions may differ. Where two headings read alike, the source gives them in different places.",
  "data": [
    {"compound": "1α-NH(p-CF3Bz) VD3 [Compound 38]", "values": [
      {"measurement": "levels of the mature form of SREBP versus DMSO", "setting": "SREBP-2", "result": "lower than that of DMSO"},
      {"measurement": "IC50", "setting": "SREBP", "result": 1.76, "unit": "µM"}
    ]},
    {"compound": "1α-NHNs VD3 [Compound 28]", "values": [
      {"measurement": "levels of the mature form of SREBP versus DMSO", "setting": "SREBP-2", "result": "lower than that of DMSO"},
      {"measurement": "IC50", "setting": "SREBP", "result": 0.68, "unit": "µM"}
    ]},
    {"compound": "1α-OH-3α-NHPhth VD3 [Compound 77]", "values": [
      {"measurement": "IC50", "setting": "SREBP", "result": 1.55, "unit": "µM"}
    ]},
    {"compound": "1α-OH-3α-NHTs VD3 [Compound 73]", "values": [
      {"measurement": "IC50", "setting": "SREBP", "result": 2.71, "unit": "µM"}
    ]},
    {"compound": "19-Nor 1β-NH(p-SCF3Bz)-3β-OH VD3 [Compound 74]", "values": [
      {"measurement": "IC50", "setting": "SREBP", "result": 1.11, "unit": "µM"}
    ]},
    {"compound": "19-Nor 1β-NHTs-3β-OH VD3 [Compound 72]", "values": [
      {"measurement": "IC50", "setting": "SREBP", "result": 1.69, "unit": "µM"}
    ]},
    {"compound": "19-Nor 1β-NPhth-3β-OH VD3 [Compound 76]", "values": [
      {"measurement": "IC50", "setting": "SREBP", "result": 2.05, "unit": "µM"}
    ]},
    {"compound": "C=C1/C(=C\\C=C2/CCC[C@]3(C)[C@@H]([C@H](C)CCCC(C)(C)O)CC[C@@H]23)C[C@@H](O)C[C@@H]1O", "note": "[1,25(OH)2D, 1α,25-dihydroxyvitamin D3]", "values": [
      {"measurement": "secretion of PLAP", "setting": "[1]", "result": "inhibited the secretion of PLAP to a greater extent than sterol; also recorded: caused a greater decrease in PLAP secretion than did cholesterol"}
    ]},
    {"compound": "C=C1C(=CC=C2CCCC3(C)C2CCC3C(C)CCCC(C)C)CC(O)CC1NC(=O)OC(C)(C)C", "note": "(stereo not drawn) [Compound 18a, 1α-NHBoc VD3]", "values": [
      {"measurement": "IC50", "setting": "SREBP", "result": 0.82, "unit": "µM"}
    ]},
    {"compound": "C=C1C(=CC=C2CCCC3(C)C2CCC3C(C)CCCC(C)C)CC(O)CC1NC(C)=O", "note": "(stereo not drawn) [Compound 22a, 1α-NHAc VD3]", "values": [
      {"measurement": "levels of the mature form of SREBP versus DMSO", "setting": "SREBP-2", "result": "lower than that of DMSO"},
      {"measurement": "IC50", "setting": "SREBP", "result": 3.24, "unit": "µM"}
    ]},
    {"compound": "C=C1C(=CC=C2CCCC3(C)C2CCC3C(C)CCCC(C)C)CC(O)CC1NC(C)=O", "note": "(stereo not drawn) [Compound 22b, 1β-NHAc VD3]", "values": [
      {"measurement": "levels of the mature form of SREBP versus DMSO", "setting": "SREBP-2", "result": "lower than that of DMSO"},
      {"measurement": "IC50", "setting": "SREBP", "result": 3.56, "unit": "µM"}
    ]},
    {"compound": "C[C@H](CCCC(C)(C)O)[C@H]1CC[C@H]2[C@@H]3CC=C4C[C@@H](O)CC[C@]4(C)[C@H]3CC[C@]12C", "note": "[Compound 25-HC, 25-hydroxycholesterol, reference compound]", "values": [
      {"measurement": "level of mature form of SREBP", "setting": "SREBP-2; 18 h, CHO-K1 cells (FIG. 3)", "result": "disappeared"},
      {"measurement": "level of precursor form of SREBP", "setting": "SREBP-2; 18 h, CHO-K1 cells (FIG. 3)", "result": "accumulated"}
    ]},
    {"compound": "C=C1C(=CC=C2CCCC3(C)C2CCC3C(C)CCCC(C)C)CC(O)CC1NS(=O)(=O)c1ccc(C)cc1", "note": "(stereo not drawn) [Compound 32, 1α-NHTs VD3]", "values": [
      {"measurement": "levels of the mature form of SREBP versus DMSO", "setting": "SREBP-2", "result": "lower than that of DMSO"},
      {"measurement": "IC50", "setting": "SREBP", "result": 0.61, "unit": "µM"}
    ]},
    {"compound": "C=C1C(=CC=C2CCCC3(C)C2CCC3C(C)CCCC(C)C)CC(O)CC1NC(=O)OCc1ccccc1", "note": "(stereo not drawn) [Compound 36, 1α-NHCbz VD3]", "values": [
      {"measurement": "levels of the mature form of SREBP versus DMSO", "setting": "SREBP-2", "result": "lower than that of DMSO"},
      {"measurement": "IC50", "setting": "SREBP", "result": 1.38, "unit": "µM"}
    ]},
    {"compound": "C=C1/C(=C\\C=C2/CCC[C@]3(C)[C@@H]([C@H](C)CCCC(C)(C)O)CC[C@@H]23)C[C@@H](O)C[C@@H]1NC(=O)c1ccc(Br)cc1", "note": "[Compound 39, 1α-NH(p-BrBz) VD3]", "values": [
      {"measurement": "levels of the mature form of SREBP versus DMSO", "setting": "SREBP-2", "result": "lower than that of DMSO"},
      {"measurement": "IC50", "setting": "SREBP; Cricetulus griseus", "result": 0.97, "unit": "µM"}
    ]},
    {"compound": "C=C1/C(=C\\C=C2/CCC[C@]3(C)[C@@H]([C@H](C)CCCC(C)(C)O)CC[C@@H]23)C[C@@H](O)C[C@@H]1NCC1CC1", "note": "[Compound 49, 1α-NH(Cyclopropylmethyl) VD3]", "values": [
      {"measurement": "IC50", "setting": "SREBP; Cricetulus griseus", "result": 16, "unit": "µM"}
    ]},
    {"compound": "Cc1ccc(S(=O)(=O)N[C@@H]2C/C(=C\\C=C3/CCC[C@]4(C)[C@@H]([C@H](C)CCCC(C)(C)O)CC[C@@H]34)C[C@@H](O)C2)cc1", "note": "[Compound 85, 19-Nor 1α-NHTs-3β-OH VD3]", "values": [
      {"measurement": "IC50", "setting": "SREBP; Cricetulus griseus", "result": 0.52, "unit": "µM"}
    ]},
    {"compound": "C[C@H](CCCC(C)(C)O)[C@H]1CC[C@H]2/C(=C/C=C3/C[C@@H](O)C[C@H](NC(=O)c4ccc(SC(F)(F)F)cc4)C3)CCC[C@]12C", "note": "[Compound 86, 19-Nor 1α-NH(p-SCF3Bz)-3β-OH VD3]", "values": [
      {"measurement": "IC50", "setting": "SREBP; Cricetulus griseus", "result": 0.53, "unit": "µM"}
    ]},
    {"compound": "C[C@H](CCCC(C)(C)O)[C@H]1CC[C@H]2/C(=C/C=C3/C[C@@H](O)C[C@H](N4C(=O)c5ccccc5C4=O)C3)CCC[C@]12C", "note": "[Compound 87, 19-Nor 1α-NPhth-3β-OH VD3]", "values": [
      {"measurement": "IC50", "setting": "SREBP; Cricetulus griseus", "result": 0.52, "unit": "µM"}
    ]},
    {"compound": "C[C@H](CCCC(C)(C)O)[C@H]1CC[C@H]2/C(=C/C=C3/C[C@@H](O)C[C@H](NS(C)(=O)=O)C3)CCC[C@]12C", "note": "[Compound 89, 19-Nor 1α-NHMs-3β-OH VD3]", "values": [
      {"measurement": "IC50", "setting": "SREBP; Cricetulus griseus", "result": 3.34, "unit": "µM"}
    ]},
    {"compound": "C[C@H](CCCC(C)(C)O)[C@H]1CC[C@H]2/C(=C/C=C3/C[C@@H](O)C[C@H](NC(=O)C(F)(F)F)C3)CCC[C@]12C", "note": "[Compound 90, 19-Nor 1α-NH(Trifluoroacetyl)-3β-OH VD3]", "values": [
      {"measurement": "IC50", "setting": "SREBP; Cricetulus griseus", "result": 0.83, "unit": "µM"}
    ]},
    {"compound": "C[C@H](CCCC(C)(C)O)[C@H]1CC[C@H]2/C(=C/C=C3/C[C@@H](O)C[C@H](NS(=O)(=O)c4cccc5c(N(C)C)cccc45)C3)CCC[C@]12C", "note": "[Compound 91, 19-Nor 1α-NHDns-3β-OH VD3]", "values": [
      {"measurement": "IC50", "setting": "SREBP; Cricetulus griseus", "result": 1.17, "unit": "µM"}
    ]},
    {"compound": "C[C@H](CCCC(C)(C)O)[C@H]1CC[C@H]2/C(=C/C=C3/C[C@@H](O)C[C@H](F)C3)CCC[C@]12C", "note": "[Compound 98, 19-Nor 1α-F-3β-OH VD3]", "values": [
      {"measurement": "IC50", "setting": "SREBP; Cricetulus griseus", "result": 1.59, "unit": "µM"}
    ]}
  ]
}
